melting point	SMILES
> 250 °C	CC(C)c1sc2ncnc(N)c2c1-c1ccc(NC(=O)c2ccccc2)cc1 [Example 8, N-[4-(4-amino-6-isopropylthieno[2,3-d]pyrimidin-5-yl)phenyl]benzamide]
169 to 173 °C	Cc1ccc(NC(=O)Nc2ccc(-c3c(Cc4ccccc4)sc4ncnc(N)c34)cc2)cc1 [Example 9, N-[4-(4-amino-6-benzylthieno[2,3-d]pyrimidin-5-yl)phenyl]-N′-(4-methylphenyl)urea]
245 to 248 °C	Cc1ccccc1NC(=O)Nc1ccc(-c2c(Cc3ccccc3)sc3ncnc(N)c23)cc1 [Example 11, N-[4-(4-amino-6-benzylthieno[2,3-d]pyrimidin-5-yl)phenyl]-N′-(2-methylphenyl)urea]
233 to 234 °C	Cc1ccccc1NC(=O)Nc1ccc(-c2c(C(C)C)sc3ncnc(N)c23)cc1 [Example 12, N-[4-(4-amino-6-isopropylthieno[2,3-d]pyrimidin-5-yl)phenyl]-N′-(2-methylphenyl)urea]
100 to 105 °C	Nc1ncnc2sc(Cc3ccccc3)c(-c3ccc(NS(=O)(=O)c4ccccc4)cc3)c12 [Example 13, N-[4-(4-amino-6-benzylthieno[2,3-d]pyrimidin-5-yl)phenyl]benzenesulfonamide]
159 to 162 °C	Cc1ccccc1NC(=O)Nc1ccc(-c2c(CCO)sc3ncnc(N)c23)cc1 [Example 107, N-{4-[4-amino-6-(2-hydroxyethyl)thieno[2,3-d]pyrimidin-5-yl]phenyl}-N′-(2-methylphenyl)urea]
128 to 132 °C	COCCc1sc2ncnc(N)c2c1-c1ccc(NC(=O)Nc2ccc(C)cc2)cc1 [Example 110, N-{4-[4-amino-6-(2-methoxyethyl)thieno[2,3-d]pyrimidin-5-yl]phenyl}-N′-(4-methylphenyl)urea]
206 to 208 °C	COCCc1sc2ncnc(N)c2c1-c1ccc(NS(=O)(=O)c2ccccc2)cc1 [Example 111, N-{4-[4-amino-6-(2-methoxyethyl)thieno[2,3-d]pyrimidin-5-yl]phenyl}benzenesulfonamide]
200 to 202 °C	COCCc1sc2ncnc(N)c2c1-c1ccc(NC(=O)Cc2cccc(C)c2)cc1 [Example 112, N-{4-[4-amino-6-(2-methoxyethyl)thieno[2,3-d]pyrimidin-5-yl]phenyl}-2-(3-methylphenyl)acetamide]
200 to 202 °C	COCCc1sc2ncnc(N)c2c1-c1ccc(NC(=O)c2ccccc2)cc1 [Example 113, N-{4-[4-amino-6-(2-methoxyethyl)thieno[2,3-d]pyrimidin-5-yl]phenyl}benzamide]
169 to 172 °C	Nc1ncnc2sc(Cc3cccnc3)c(-c3ccc(NC(=O)Nc4cccc(Cl)c4)cc3)c12 [Example 117, N-{4-[4-amino-6-(pyridin-3-ylmethyl)thieno[2,3-d]pyrimidin-5-yl]phenyl}-N′-(3-chlorophenyl)urea]
217 to 219 °C	COCCc1sc2ncnc(N)c2c1-c1ccc(NC(=O)Nc2ccccc2C)cc1 [Example 137, N-{4-[4-amino-6-(2-methoxyethyl)thieno[2,3-d]pyrimidin-5-yl]phenyl}-N′-(2-methylphenyl)urea]
155 to 158 °C	Nc1ncnc2sc(CCO)c(-c3ccc(NC(=O)Nc4cccc(C(F)(F)F)c4)cc3)c12 [Example 139, N-{4-[4-amino-6-(2-hydroxyethyl)thieno[2,3-d]pyrimidin-5-yl]phenyl}-N′-[3-(trifluoromethyl)phenyl]urea]
209 to 211 °C	COCCc1sc2ncnc(N)c2c1-c1ccc(NC(=O)Nc2cc(C(F)(F)F)ccc2F)cc1 [Example 140, N-{4-[4-amino-6-(2-methoxyethyl)thieno[2,3-d]pyrimidin-5-yl]phenyl}-N′-[2-fluoro-5-(trifluoromethyl)phenyl]urea]
162 to 166 °C	Nc1ncnc2sc(Cc3ccncc3)c(-c3ccc(NC(=O)Nc4cccc(C(F)(F)F)c4)cc3)c12 [Example 142, N-{4-[4-amino-6-(pyridin-4-ylmethyl)thieno[2,3-d]pyrimidin-5-yl]phenyl}-N′-[3-(trifluoromethyl)phenyl]urea]
142 to 144 °C	Cc1cccc(CC(=O)Nc2ccc(-c3c(CCO)sc4ncnc(N)c34)cc2)c1 [Example 350, N-{4-[4-amino-6-(2-hydroxyethyl)thieno[2,3-d]pyrimidin-5-yl]phenyl}-2-(3-methylphenyl)acetamide]

Reference: patent US7560552B2, “Thiopyrimidine and isothiazolopyrimidine kinase inhibitors” (Abbott Laboratories, priority 2002, dated 2009)
